What was measured:
[1] = target: Ephrin type-A receptor 2 (Homo sapiens) (UniProt P29317); assay: Inhibition of human EphA2 assessed as remaining enzyme activity at 0.01 uM
[2] = target: NT-3 growth factor receptor (Homo sapiens) (UniProt Q16288); assay: Inhibition of human TRKC assessed as remaining enzyme activity at 1 uM
[3] = target: Tyrosine-protein kinase ABL2 (Mus musculus) (UniProt Q4JIM5); assay: Inhibition of mouse ARG assessed as remaining enzyme activity at 0.1 uM
[4] = target: LIM domain kinase 1 (Homo sapiens) (UniProt P53667); assay: Inhibition of human LIMK1 assessed as remaining enzyme activity at 1 uM
[5] = target: Tyrosine-protein kinase FRK (Homo sapiens) (UniProt P42685); assay: Inhibition of human PTK5 assessed as remaining enzyme activity at 0.01 uM
[6] = target: Mitogen-activated protein kinase kinase kinase 20 (Homo sapiens) (UniProt Q9NYL2); assay: Inhibition of human ZAK assessed as remaining enzyme activity at 0.1 uM
[7] = target: Epithelial discoidin domain-containing receptor 1 (Homo sapiens) (UniProt Q08345); assay: Inhibition of human DDR1 assessed as remaining enzyme activity at 0.01 uM
[8] = target: T1, Homeodomain-interacting protein kinase 4 (Homo sapiens) (UniProt Q8NE63); assay: Inhibition of human HIPK4 assessed as remaining enzyme activity at 1 uM
T1 sequence (whole entry): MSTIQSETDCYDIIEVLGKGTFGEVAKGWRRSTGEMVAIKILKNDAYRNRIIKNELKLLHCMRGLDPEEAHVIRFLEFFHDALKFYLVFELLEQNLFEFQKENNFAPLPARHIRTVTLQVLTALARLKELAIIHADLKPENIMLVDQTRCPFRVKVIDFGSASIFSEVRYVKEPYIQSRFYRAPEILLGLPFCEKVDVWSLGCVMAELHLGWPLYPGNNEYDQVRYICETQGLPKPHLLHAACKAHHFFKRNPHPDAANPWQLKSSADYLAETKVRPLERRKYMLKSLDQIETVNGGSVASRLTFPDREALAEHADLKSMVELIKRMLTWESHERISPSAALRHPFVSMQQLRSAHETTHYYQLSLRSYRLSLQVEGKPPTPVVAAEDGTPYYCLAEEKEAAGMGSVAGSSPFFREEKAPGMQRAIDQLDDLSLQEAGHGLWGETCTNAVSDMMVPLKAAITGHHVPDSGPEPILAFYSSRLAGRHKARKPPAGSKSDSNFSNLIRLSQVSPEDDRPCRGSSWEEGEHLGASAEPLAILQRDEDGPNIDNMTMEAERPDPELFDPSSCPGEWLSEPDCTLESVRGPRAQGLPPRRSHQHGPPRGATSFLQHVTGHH

[9] = target: BDNF/NT-3 growth factors receptor (Homo sapiens) (UniProt Q16620); assay: Inhibition of human TRKB assessed as remaining enzyme activity at 1 uM
[10] = target: Tyrosine-protein kinase Lyn (Homo sapiens) (UniProt P07948); assay: Inhibition of human LYN assessed as remaining enzyme activity at 1 uM
[11] = target: Serine/threonine-protein kinase B-raf (Homo sapiens) (UniProt P15056); assay: Inhibition of human B-Raf assessed as remaining enzyme activity at 1 uM
[12] = target: Homeodomain-interacting protein kinase 2 (Homo sapiens) (UniProt Q9H2X6); assay: Inhibition of human HIPK2 assessed as remaining enzyme activity at 0.1 uM
[13] = target: Tyrosine-protein kinase ABL1 (Homo sapiens) (UniProt P00519); assay: Inhibition of human ABL assessed as remaining enzyme activity at 1 uM
[14] = target: Tyrosine-protein kinase ABL2 (Mus musculus) (UniProt Q4JIM5); assay: Inhibition of mouse ARG assessed as remaining enzyme activity at 1 uM
[15] = target: Ephrin type-A receptor 2 (Homo sapiens) (UniProt P29317); assay: Inhibition of human EphA2 assessed as remaining enzyme activity at 1 uM
[16] = target: T2, Muscle, skeletal receptor tyrosine-protein kinase (Homo sapiens) (UniProt O15146); assay: Inhibition of human MuSK assessed as remaining enzyme activity at 1 uM
T2 sequence (whole entry): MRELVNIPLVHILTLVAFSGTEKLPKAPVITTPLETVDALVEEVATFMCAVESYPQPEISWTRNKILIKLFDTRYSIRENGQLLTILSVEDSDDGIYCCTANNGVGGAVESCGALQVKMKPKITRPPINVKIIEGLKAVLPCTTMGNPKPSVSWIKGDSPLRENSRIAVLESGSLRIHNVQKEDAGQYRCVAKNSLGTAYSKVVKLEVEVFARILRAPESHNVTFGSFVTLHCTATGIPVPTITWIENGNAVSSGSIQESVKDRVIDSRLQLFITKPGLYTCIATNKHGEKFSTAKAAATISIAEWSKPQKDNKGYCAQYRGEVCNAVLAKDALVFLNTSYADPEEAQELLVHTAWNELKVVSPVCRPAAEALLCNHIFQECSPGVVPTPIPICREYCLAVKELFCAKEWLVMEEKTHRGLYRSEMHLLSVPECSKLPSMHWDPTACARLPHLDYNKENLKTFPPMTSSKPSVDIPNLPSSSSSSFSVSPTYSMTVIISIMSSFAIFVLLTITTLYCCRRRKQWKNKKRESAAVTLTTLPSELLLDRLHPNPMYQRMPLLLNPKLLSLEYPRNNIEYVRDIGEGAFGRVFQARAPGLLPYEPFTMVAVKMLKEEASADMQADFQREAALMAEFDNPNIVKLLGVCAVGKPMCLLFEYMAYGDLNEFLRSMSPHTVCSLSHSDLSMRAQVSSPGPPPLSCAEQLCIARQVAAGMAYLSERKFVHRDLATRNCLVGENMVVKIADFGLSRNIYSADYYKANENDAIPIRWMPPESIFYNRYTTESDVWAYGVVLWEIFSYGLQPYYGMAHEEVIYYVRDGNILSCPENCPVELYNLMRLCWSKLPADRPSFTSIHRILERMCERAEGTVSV

[17] = target: Vascular endothelial growth factor receptor 2 (Homo sapiens) (UniProt P35968); assay: Inhibition of human VEGFR2 assessed as remaining enzyme activity at 0.01 uM
[18] = target: MAP kinase-interacting serine/threonine-protein kinase 2 (Homo sapiens) (UniProt Q9HBH9); assay: Inhibition of human MNK2 assessed as remaining enzyme activity at 1 uM

Ephrin type-A receptor 2 (Homo sapiens), sequence (P29317 whole entry): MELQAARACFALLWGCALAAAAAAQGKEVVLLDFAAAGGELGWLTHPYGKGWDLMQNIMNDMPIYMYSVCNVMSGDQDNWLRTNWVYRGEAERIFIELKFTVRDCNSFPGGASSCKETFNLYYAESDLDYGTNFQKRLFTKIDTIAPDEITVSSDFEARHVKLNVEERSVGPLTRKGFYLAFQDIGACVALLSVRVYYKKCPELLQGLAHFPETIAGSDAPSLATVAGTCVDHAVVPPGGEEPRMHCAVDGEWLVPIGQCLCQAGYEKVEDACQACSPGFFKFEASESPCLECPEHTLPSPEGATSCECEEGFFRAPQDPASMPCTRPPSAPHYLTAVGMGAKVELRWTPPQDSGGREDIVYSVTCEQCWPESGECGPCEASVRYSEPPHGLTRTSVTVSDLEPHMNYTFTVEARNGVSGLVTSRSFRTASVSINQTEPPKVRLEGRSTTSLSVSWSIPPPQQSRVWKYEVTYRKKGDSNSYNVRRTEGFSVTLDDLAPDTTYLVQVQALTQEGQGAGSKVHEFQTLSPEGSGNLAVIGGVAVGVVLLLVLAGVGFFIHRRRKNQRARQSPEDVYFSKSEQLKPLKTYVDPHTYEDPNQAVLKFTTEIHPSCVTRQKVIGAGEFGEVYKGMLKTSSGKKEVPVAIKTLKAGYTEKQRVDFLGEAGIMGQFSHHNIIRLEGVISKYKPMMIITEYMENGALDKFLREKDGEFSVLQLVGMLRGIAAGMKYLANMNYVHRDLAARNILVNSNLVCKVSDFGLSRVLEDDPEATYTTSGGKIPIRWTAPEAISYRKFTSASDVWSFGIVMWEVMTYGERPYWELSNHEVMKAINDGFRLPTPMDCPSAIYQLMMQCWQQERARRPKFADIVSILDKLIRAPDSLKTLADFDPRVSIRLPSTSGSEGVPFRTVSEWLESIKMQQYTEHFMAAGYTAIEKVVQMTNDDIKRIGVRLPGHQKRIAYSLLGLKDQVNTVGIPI
Tyrosine-protein kinase ABL2 (Mus musculus), sequence (Q4JIM5 whole entry, the tested form may be a part): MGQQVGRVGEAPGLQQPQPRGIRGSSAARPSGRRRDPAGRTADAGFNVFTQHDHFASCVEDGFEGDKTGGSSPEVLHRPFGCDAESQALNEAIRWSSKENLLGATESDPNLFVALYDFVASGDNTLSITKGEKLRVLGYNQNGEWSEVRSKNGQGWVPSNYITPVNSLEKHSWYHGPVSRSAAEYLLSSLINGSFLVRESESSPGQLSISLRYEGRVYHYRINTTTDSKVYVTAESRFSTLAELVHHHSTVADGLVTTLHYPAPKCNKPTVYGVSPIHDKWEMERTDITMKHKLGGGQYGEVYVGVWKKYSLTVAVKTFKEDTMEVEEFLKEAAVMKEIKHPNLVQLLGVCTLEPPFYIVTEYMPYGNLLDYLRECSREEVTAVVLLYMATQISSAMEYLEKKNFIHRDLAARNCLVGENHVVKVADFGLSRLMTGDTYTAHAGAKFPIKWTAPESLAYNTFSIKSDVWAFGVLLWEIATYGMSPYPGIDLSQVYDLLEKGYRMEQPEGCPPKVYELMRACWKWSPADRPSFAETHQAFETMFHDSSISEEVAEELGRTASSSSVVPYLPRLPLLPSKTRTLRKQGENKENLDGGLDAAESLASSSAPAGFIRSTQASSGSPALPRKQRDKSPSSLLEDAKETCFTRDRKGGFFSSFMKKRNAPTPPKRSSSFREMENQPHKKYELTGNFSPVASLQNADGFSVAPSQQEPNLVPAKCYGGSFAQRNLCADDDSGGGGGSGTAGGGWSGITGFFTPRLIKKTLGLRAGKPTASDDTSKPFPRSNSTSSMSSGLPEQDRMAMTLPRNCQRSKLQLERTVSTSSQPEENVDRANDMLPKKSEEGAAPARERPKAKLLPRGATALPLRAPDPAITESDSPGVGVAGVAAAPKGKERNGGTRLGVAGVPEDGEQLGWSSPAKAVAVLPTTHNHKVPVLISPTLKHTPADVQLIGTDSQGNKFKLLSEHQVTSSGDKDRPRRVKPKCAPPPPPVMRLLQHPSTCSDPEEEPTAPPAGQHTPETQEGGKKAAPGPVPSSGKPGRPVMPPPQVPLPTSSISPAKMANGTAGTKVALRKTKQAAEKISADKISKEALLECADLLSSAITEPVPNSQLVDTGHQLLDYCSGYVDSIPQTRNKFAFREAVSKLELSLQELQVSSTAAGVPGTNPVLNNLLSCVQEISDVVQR
Mitogen-activated protein kinase kinase kinase 20 (Homo sapiens), sequence (Q9NYL2 2-800 limits assumed): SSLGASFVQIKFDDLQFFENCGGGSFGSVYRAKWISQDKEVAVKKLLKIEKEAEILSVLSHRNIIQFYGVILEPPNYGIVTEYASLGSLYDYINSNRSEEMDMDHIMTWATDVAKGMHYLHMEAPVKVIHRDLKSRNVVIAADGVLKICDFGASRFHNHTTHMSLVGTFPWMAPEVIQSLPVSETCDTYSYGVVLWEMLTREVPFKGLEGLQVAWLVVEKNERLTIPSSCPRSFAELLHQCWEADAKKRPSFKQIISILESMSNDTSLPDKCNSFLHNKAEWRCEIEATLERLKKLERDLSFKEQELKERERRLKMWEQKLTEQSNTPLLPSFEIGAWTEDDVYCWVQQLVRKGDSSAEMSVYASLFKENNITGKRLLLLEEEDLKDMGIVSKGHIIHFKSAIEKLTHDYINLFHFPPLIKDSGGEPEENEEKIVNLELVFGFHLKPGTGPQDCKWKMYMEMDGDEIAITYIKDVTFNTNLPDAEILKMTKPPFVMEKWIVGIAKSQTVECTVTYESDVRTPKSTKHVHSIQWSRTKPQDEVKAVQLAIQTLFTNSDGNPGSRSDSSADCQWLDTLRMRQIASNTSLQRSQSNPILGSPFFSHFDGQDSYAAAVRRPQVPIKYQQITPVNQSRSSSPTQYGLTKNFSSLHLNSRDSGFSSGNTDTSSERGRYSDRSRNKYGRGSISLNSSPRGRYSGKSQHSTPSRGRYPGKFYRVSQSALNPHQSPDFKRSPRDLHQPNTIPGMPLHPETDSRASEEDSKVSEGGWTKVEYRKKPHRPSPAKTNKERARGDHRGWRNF
Tyrosine-protein kinase Lyn (Homo sapiens), sequence (P07948 2-512 limits assumed): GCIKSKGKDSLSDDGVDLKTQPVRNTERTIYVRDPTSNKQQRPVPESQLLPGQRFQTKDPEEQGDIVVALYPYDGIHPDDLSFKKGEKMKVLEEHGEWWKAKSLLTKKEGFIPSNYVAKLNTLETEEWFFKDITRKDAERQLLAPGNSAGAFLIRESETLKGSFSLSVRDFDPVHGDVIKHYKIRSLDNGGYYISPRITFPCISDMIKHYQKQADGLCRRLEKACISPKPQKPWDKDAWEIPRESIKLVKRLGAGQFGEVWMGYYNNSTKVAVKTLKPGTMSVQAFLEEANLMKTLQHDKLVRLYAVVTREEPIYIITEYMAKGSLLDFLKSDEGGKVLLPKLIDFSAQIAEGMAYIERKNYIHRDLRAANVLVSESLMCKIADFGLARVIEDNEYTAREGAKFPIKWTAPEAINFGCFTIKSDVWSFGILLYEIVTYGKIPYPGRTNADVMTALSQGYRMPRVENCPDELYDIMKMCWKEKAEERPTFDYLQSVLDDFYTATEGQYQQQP
Tyrosine-protein kinase FRK (Homo sapiens), sequence (P42685 whole entry): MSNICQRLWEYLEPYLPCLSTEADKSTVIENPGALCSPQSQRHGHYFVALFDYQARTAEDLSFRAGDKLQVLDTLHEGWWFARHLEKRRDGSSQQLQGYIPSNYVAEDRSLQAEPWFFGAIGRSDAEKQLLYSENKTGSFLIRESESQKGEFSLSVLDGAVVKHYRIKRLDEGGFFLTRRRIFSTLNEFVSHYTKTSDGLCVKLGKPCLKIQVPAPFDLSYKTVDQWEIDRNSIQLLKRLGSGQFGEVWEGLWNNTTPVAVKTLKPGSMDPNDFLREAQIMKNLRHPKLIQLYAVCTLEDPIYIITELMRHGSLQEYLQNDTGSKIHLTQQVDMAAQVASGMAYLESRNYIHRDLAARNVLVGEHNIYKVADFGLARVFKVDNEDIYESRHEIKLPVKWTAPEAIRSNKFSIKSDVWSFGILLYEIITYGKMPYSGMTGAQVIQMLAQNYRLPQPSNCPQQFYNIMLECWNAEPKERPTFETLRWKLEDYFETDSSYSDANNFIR
Epithelial discoidin domain-containing receptor 1 (Homo sapiens), sequence (Q08345 whole entry, the tested form may be a part): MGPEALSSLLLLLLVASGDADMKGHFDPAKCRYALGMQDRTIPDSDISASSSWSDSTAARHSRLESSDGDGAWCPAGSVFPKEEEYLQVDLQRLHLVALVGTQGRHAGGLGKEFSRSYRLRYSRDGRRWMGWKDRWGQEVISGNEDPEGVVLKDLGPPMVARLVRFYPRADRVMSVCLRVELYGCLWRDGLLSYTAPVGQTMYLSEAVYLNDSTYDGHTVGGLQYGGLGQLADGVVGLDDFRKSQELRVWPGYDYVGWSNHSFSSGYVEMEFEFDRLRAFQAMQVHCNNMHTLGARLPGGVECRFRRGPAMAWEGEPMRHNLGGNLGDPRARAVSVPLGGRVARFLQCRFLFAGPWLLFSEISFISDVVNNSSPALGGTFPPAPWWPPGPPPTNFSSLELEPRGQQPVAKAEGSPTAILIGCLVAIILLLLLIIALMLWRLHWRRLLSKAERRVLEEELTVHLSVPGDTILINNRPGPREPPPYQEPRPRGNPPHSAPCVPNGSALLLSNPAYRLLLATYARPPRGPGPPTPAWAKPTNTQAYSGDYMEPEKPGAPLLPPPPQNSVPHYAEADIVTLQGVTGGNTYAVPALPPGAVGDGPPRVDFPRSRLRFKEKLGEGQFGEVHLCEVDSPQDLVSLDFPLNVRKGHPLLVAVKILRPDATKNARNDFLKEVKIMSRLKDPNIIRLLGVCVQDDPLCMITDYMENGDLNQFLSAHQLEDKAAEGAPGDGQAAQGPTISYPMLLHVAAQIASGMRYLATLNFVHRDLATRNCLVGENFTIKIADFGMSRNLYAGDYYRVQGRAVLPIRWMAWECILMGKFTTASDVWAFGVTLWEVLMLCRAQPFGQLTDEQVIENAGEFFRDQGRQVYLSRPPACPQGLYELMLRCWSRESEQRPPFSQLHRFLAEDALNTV

How did the Activity [1] turn out when CNC(=O)c1cc(Oc2ccc(NC(=O)Nc3ccc(Cl)c(C(F)(F)F)c3)c(F)c2)ccn1 was run?
The Activity was 90%.

And the Activity [2]?
Its Activity is 1%.

And the Activity [3]?
Its Activity is 29%.

What about the Activity [4] of the same molecule?
Its Activity is 46%.

What about the Activity [5] of the same molecule?
The Activity was 64%.

And the Activity [6]?
Its Activity is 2%.

And the Activity [7]?
The Activity was 92%.

What about the Activity [8] of the same molecule?
Its Activity is -1%.

And the Activity [9]?
Its Activity is 1%.

What about the Activity [10] of the same molecule?
Its Activity is 1%.

What about the Activity [11] of the same molecule?
Its Activity is 8%.

What about the Activity [12] of the same molecule?
The Activity was 61%.

And the Activity [13]?
The Activity was 8%.

And the Activity [14]?
The Activity was 9%.

What about the Activity [15] of the same molecule?
The Activity was 5%.

And the Activity [16]?
Its Activity is 21%.

And the Activity [17]?
Its Activity is 68%.

And the Activity [18]?
The Activity was 34%.
